30 compounds from US10160755B2 (Plexxikon Inc., priority 2015, dated 2018) can be followed below.

The target in the assay is T1, FLT3-D835Y (Homo sapiens, UniProt P36888, D835Y).
T1 construct: purchased Invitrogen PV3967
T1 sequence (P36888 27-993 D835Y): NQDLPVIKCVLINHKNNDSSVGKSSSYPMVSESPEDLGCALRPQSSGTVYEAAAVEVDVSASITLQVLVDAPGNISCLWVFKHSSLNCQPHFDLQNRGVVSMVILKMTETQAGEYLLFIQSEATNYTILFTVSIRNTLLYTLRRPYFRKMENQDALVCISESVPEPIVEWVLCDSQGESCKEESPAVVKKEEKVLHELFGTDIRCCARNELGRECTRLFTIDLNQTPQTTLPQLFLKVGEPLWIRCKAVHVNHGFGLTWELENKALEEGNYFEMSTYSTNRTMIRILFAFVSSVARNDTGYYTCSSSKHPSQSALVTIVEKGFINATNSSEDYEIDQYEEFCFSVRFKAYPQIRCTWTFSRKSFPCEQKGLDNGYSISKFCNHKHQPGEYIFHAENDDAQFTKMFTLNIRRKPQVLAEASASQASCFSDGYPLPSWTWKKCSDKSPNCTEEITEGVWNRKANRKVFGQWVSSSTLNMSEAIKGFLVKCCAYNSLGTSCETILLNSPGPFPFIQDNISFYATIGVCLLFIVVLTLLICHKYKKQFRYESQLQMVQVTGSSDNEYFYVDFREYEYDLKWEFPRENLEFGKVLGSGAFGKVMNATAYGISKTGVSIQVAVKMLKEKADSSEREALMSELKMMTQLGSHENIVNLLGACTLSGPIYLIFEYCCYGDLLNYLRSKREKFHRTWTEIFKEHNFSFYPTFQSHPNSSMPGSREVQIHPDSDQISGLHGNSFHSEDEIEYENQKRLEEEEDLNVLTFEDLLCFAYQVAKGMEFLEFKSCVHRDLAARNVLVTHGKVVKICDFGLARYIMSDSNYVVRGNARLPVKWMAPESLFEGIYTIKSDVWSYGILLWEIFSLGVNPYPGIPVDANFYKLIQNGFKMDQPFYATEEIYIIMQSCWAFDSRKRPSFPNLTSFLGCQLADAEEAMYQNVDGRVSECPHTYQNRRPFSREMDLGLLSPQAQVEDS
Nature of the assay: FLT3-D835Y biochemical kinase assay (AlphaScreen). In outline: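 Recombinant enzyme phosphorylated biotin-poly(Glu4-Tyr) peptide (30 nM final); ATP final 10 μM for FLT3-D835Y, 100 μM for FLT3-ITD. AlphaScreen read-out: streptavidin donor and anti-phosphotyrosine (PY20) acceptor beads, 20 and 60 min at room temperature; inhibition seen as drop in 580 nm proximity signal; IC50 determined.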
Background: Alpha assays give light when donor and acceptor beads are brought close together.

Usually IC50 stands for the midpoint of a concentration-inhibition curve. A lower IC50 goes with greater potency in that assay.

`CC(C)(C)n1cnc2ccc(-c3c[nH]c4ncc(-c5cccc(N6CCOCC6)c5)nc34)cc21` [P-226, 4-[3-[7-(3-tert-butylbenzimidazol-5-yl)-5H-pyrrolo[2,3-b]pyrazin-2-yl]phenyl]morpholine] showed an IC50 of 0.0001 to 1 µM.

In turn, `O=S1(=O)CCCCN1c1cccc(-c2cnc3[nH]cc(-c4ccc5ncn(C6CCCNC6)c5c4)c3n2)c1` (stereo not drawn) [P-253, 2-[3-[7-[3-(3-piperidyl)benzimidazol-5-yl]-5H-pyrrolo[2,3-b]pyrazin-2-yl]phenyl]thiazinane 1,1-dioxide] showed an IC50 of 0.0001 to 1 µM.

Consider `FC(F)(F)Cn1cc(-c2cnc3[nH]cc(-c4ccc5ncn(C6CCCNC6)c5c4)c3n2)cn1` (stereo not drawn) [P-258, 7-[3-(3-piperidyl)benzimidazol-5-yl]-2-[1-(2,2,2-trifluoroethyl)pyrazol-4-yl]-5H-pyrrolo[2,3-b]pyrazine], for which the IC50 is 0.0001 to 1 µM.

As for `COc1cc(-c2cnc3[nH]nc(-c4ccc5ncn(C(C)(C)C)c5c4)c3c2)ccn1` [P-272, 3-(1-(tert-butyl)-1H-benzo[d]imidazol-6-yl)-5-(2-methoxypyridin-4-yl)-1H-pyrazolo[3,4-b]pyridine], the IC50 was 0.0001 to 1 µM.

On to `FC(F)n1cc(-c2cnc3[nH]cc(-c4ccc5ncn(C6CCCNC6)c5c4)c3n2)cn1` (stereo not drawn) [P-257, 2-[1-(difluoromethyl)pyrazol-4-yl]-7-[3-(3-piperidyl)benzimidazol-5-yl]-5H-pyrrolo[2,3-b]pyrazine], for which the IC50 is 0.0001 to 1 µM.

For `COc1cc(-c2cnc3[nH]cc(-c4ccc5ncn(C(C)(C)CO)c5c4)c3n2)ccn1` [P-186, 2-[6-[2-(2-methoxy-4-pyridyl)-5H-pyrrolo[2,3-b]pyrazin-7-yl]benzimidazol-1-yl]-2-methyl-propan-1-ol], the IC50 is 0.0001 to 1 µM.

Consider `C#Cc1cnc2[nH]cc(-c3ccc4ncn(C5CCCNC5)c4c3)c2n1` (stereo not drawn) [P-270, 2-ethynyl-7-[3-(3-piperidyl)benzimidazol-5-yl]-5H-pyrrolo[2,3-b]pyrazine], for which the IC50 fell in the range of 0.0001 to 1 µM.

`CC(C)(C)n1cnc2ccc(-c3c[nH]c4ncc(-c5cnc(N6CCOCC6)nc5)cc34)cc21` [P-266, 4-[5-[3-(3-tert-butylbenzimidazol-5-yl)-1H-pyrrolo[2,3-b]pyridin-5-yl]pyrimidin-2-yl]morpholine] came in with an IC50 of 0.0001 to 1 µM.

The compound `COc1cc(-c2cnc3[nH]cc(-c4ccc5ncn(C6CCCN(C)C6)c5c4)c3n2)ccn1` (stereo not drawn) [P-271, 2-(2-methoxy-4-pyridyl)-7-[3-(1-methyl-3-piperidyl)benzimidazol-5-yl]-5H-pyrrolo[2,3-b]pyrazine] gave an IC50 of 0.0001 to 1 µM.

Regarding `COc1cc(C#Cc2cnc3[nH]cc(-c4ccc5ncn(C(C)(C)C)c5c4)c3c2)ccn1` [P-240, 1-(tert-butyl)-6-(5-((2-methoxypyridin-4-yl)ethynyl)-1H-pyrrolo[2,3-b]pyridin-3-yl)-1H-benzo[d]imidazole], the IC50 fell in the range of 0.0001 to 1 µM.

Turning to `COc1cc(-c2cnc3[nH]cc(-c4ccc5ncn(C6CCCN(C(C)=O)C6)c5c4)c3n2)ccn1` (stereo not drawn) [P-260, 1-[3-[6-[2-(2-methoxy-4-pyridyl)-5H-pyrrolo[2,3-b]pyrazin-7-yl]benzimidazol-1-yl]-1-piperidyl]ethanone], the IC50 was in the range of 0.0001 to 1 µM.

The compound `COc1cc(C#Cc2cnc3[nH]cc(-c4ccc5ncn(C6CCCNC6)c5c4)c3c2)ccn1` (stereo not drawn) [P-241, 5-[2-(2-methoxy-4-pyridyl)ethynyl]-3-[3-(3-piperidyl)benzimidazol-5-yl]-1H-pyrrolo[2,3-b]pyridine] yielded an IC50 of 0.0001 to 1 µM.

As for `CC(C)(C)n1cnc2ccc(-c3c[nH]c4ncc(NC(=O)c5cccc(C#N)c5)cc34)cc21` [P-235, N-[3-(3-tert-butylbenzimidazol-5-yl)-1H-pyrrolo[2,3-b]pyridin-5-yl]-3-cyano-benzamide], the IC50 was in the range of 0.0001 to 1 µM.

In the case of `COc1cnc2[nH]cc(-c3ccc4ncn(-c5cccc(Cl)c5)c4c3)c2c1` [P-105, 1-(3-chlorophenyl)-6-(5-methoxy-1H-pyrrolo[2,3-b]pyridin-3-yl)benzimidazole], the concentration for half-maximal inhibition (IC50) lay in the range of 0.0001 to 1 µM.

Turning to `COC(=O)N1CCCC(n2cnc3ccc(-c4c[nH]c5ncc(-c6ccnc(OC)c6)nc45)cc32)C1` (stereo not drawn) [P-261, methyl 3-(6-(2-(2-methoxypyridin-4-yl)-5H-pyrrolo[2,3-b]pyrazin-7-yl)-1H-benzo[d]imidazol-1-yl)piperidine-1-carboxylate], the IC50 is 0.0001 to 1 µM.

Take `CC(C)n1cnc2ccc(-c3c[nH]c4ncc(-c5cnn(C(F)F)c5)cc34)cc21` [P-267, 5-[1-(difluoromethyl)pyrazol-4-yl]-3-(3-isopropylbenzimidazol-5-yl)-1H-pyrrolo[2,3-b]pyridine]: the IC50 is 0.0001 to 1 µM.

With `O=C(Nc1cccc(F)c1)c1cnc2[nH]cc(-c3ccc4ncn(C5CCCNC5)c4c3)c2c1` (stereo not drawn) [P-178, N-(3-fluorophenyl)-3-[3-(3-piperidyl)benzimidazol-5-yl]-1H-pyrrolo[2,3-b]pyridine-5-carboxamide], the IC50 was 0.0001 to 1 µM.

Regarding `CC(C)S(=O)(=O)Nc1cccc(-c2cnc3[nH]cc(-c4ccc5ncn(C6CCCNC6)c5c4)c3c2)c1` (stereo not drawn) [P-215, N-[3-[3-[3-(3-piperidyl)benzimidazol-5-yl]-1H-pyrrolo[2,3-b]pyridin-5-yl]phenyl]propane-2-sulfonamide], the IC50 is 0.0001 to 1 µM.

`CC(C)(C)n1cnc2ccc(-c3c[nH]c4ncc(-c5cccc(N6CCCS6(=O)=O)c5)nc34)cc21` [P-231, 2-[3-[7-(3-tert-butylbenzimidazol-5-yl)-5H-pyrrolo[2,3-b]pyrazin-2-yl]phenyl]-1,2-thiazolidine 1,1-dioxide] yielded an IC50 of 0.0001 to 1 µM.

`COc1ncc(-c2cnc3[nH]cc(-c4ccc5ncn(C(C)C)c5c4)c3c2)cn1` [P-269, 1-isopropyl-6-[5-(2-methoxypyrimidin-5-yl)-1H-pyrrolo[2,3-b]pyridin-3-yl]benzimidazole]: the IC50 fell in the range of 0.0001 to 1 µM.

In turn, `COc1cc(-c2cnc3[nH]cc(-c4ccc5ncn(C(C)(C)C)c5c4)c3c2)ccn1` [P-106, 1-tert-butyl-6-[5-(2-methoxy-4-pyridyl)-1H-pyrrolo[2,3-b]pyridin-3-yl]benzimidazole] yielded an IC50 of 0.0001 to 1 µM.

`CC(C)(C)n1cnc2ccc(-c3c[nH]c4ncc(C#Cc5cccc(C#N)c5)cc34)cc21` [P-242, 3-[2-[3-(3-tert-butylbenzimidazol-5-yl)-1H-pyrrolo[2,3-b]pyridin-5-yl]ethynyl]benzonitrile] registered an IC50 of 0.0001 to 1 µM.

`CC(C)S(=O)(=O)Nc1cccc(-c2cnc3[nH]cc(-c4ccc5ncn(C(C)(C)C)c5c4)c3n2)c1` [P-232, N-[3-[7-(3-tert-butylbenzimidazol-5-yl)-5H-pyrrolo[2,3-b]pyrazin-2-yl]phenyl]propane-2-sulfonamide] showed an IC50 of 0.0001 to 1 µM.

On to `C#Cc1cnc2[nH]cc(-c3ccc4ncn(C(C)(C)C)c4c3)c2c1` [P-244, 1-tert-butyl-6-(5-ethynyl-1H-pyrrolo[2,3-b]pyridin-3-yl)benzimidazole], for which the IC50 is 0.0001 to 1 µM.

`FC(F)(F)Oc1cccc(-c2cnc3[nH]cc(-c4ccc5ncn(C6CCCNC6)c5c4)c3n2)c1` (stereo not drawn) [P-193, 7-[3-(3-piperidyl)benzimidazol-5-yl]-2-[3-(trifluoromethoxy)phenyl]-5H-pyrrolo[2,3-b]pyrazine]: the IC50 lay within 0.0001 to 1 µM.

`Cn1cnc2ccc(-c3c[nH]c4ncc(-c5cnn(CC(F)(F)F)c5)cc34)cc21` [P-175, 1-methyl-6-[5-[1-(2,2,2-trifluoroethyl)pyrazol-4-yl]-1H-pyrrolo[2,3-b]pyridin-3-yl]benzimidazole] had an IC50 of 0.0001 to 1 µM.

For `COc1ncc(-c2cnc3[nH]cc(-c4ccc5ncn(C(C)(C)C)c5c4)c3c2)cn1` [P-265, 1-(tert-butyl)-6-(5-(2-methoxypyrimidin-5-yl)-1H-pyrrolo[2,3-b]pyridin-3-yl)-1H-benzo[d]imidazole], the IC50 is 0.0001 to 1 µM.

For the compound `N#Cc1cccc(NC(=O)c2cnc3[nH]cc(-c4ccc5ncn(C6CCCNC6)c5c4)c3c2)c1` (stereo not drawn) [P-219, N-(3-cyanophenyl)-3-(1-(piperidin-3-yl)-1H-benzo[d]imidazol-6-yl)-1H-pyrrolo[2,3-b]pyridine-5-carboxamide], the IC50 fell in the range of 0.0001 to 1 µM.

With `c1cc(N2CCOCC2)ccc1-c1cnc2[nH]cc(-c3ccc4ncn(C5CCCNC5)c4c3)c2n1` (stereo not drawn) [P-101, 4-[4-[7-[3-(3-piperidyl)benzimidazol-5-yl]-5H-pyrrolo[2,3-b]pyrazin-2-yl]phenyl]morpholine], the IC50 was in the range of 0.0001 to 1 µM.

Turning to `COc1cc(-c2cnc3[nH]cc(-c4ccc5ncn([C@@H]6CCCNC6)c5c4)c3n2)ccn1` [P-254, 2-(2-methoxy-4-pyridyl)-7-[3-[(3R)-3-piperidyl]benzimidazol-5-yl]-5H-pyrrolo[2,3-b]pyrazine], the IC50 was in the range of 0.0001 to 1 µM.
